Values of other authors, collected in paper PMC12675387, “Receptor interaction profiles of 4-alkoxy-2,6-dimethoxyphenethylamines (Ψ derivatives) and related amphetamines” (Frontiers in Pharmacology, 2025).
Where two headings read alike, the source gives them in different places.

Legend:
human 5-HT2A receptor = biological target: T1, human 5-HT2A receptor (Homo sapiens, UniProt P28223); details: cited from earlier work; for h5-HT2A activation efficacy Emax ± SD: reference substances, ref Luethi et al., 2018; for type of agonism at the 5-HT2A receptor: ref Kolaczynska et al., 2019
T1 construct: expressed in transfected cells; host or cells: NIH-3T3 mouse embryonic fibroblasts
T1 sequence (P28223 whole entry): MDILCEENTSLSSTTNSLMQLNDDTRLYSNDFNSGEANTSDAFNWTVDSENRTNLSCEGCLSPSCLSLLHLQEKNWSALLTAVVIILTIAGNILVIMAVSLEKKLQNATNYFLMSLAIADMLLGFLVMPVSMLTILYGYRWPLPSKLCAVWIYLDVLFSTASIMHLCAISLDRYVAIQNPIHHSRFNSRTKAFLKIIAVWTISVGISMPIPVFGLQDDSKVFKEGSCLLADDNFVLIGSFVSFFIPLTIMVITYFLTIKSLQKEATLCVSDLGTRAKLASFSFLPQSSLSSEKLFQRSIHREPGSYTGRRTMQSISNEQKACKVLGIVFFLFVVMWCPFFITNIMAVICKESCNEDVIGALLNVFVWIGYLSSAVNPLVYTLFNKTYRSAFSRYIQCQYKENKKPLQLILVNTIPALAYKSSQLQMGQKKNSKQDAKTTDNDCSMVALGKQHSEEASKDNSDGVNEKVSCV

human 5-HT2B receptor = biological target: T2, human 5-HT2B receptor (Homo sapiens, UniProt P41595); set-up: method as in Luethi et al., 2018; details: reference substances; ref Luethi et al., 2018; cited from earlier work
T2 construct: expressed in transfected cells; host or cells: HEK 293 cells
T2 sequence (P41595 whole entry): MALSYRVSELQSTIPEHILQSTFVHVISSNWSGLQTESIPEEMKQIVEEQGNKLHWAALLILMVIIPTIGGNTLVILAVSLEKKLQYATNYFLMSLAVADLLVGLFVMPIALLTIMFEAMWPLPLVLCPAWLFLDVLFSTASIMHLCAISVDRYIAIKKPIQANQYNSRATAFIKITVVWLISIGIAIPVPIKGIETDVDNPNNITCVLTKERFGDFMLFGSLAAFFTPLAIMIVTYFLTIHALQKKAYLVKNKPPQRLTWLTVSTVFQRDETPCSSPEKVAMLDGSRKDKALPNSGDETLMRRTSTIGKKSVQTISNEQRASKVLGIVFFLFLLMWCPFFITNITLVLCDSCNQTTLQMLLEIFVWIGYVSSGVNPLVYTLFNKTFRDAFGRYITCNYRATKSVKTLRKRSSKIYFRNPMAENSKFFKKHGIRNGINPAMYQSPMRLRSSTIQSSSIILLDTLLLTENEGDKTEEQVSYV

rTAAR1 = rTAAR1 (Rattus norvegicus, UniProt Q923Y9); set-up: expressed in transfected cells; host or cells: HEK 293 cells (membrane preparations); details: cited from earlier work
rTAAR1, sequence (Q923Y9 whole entry): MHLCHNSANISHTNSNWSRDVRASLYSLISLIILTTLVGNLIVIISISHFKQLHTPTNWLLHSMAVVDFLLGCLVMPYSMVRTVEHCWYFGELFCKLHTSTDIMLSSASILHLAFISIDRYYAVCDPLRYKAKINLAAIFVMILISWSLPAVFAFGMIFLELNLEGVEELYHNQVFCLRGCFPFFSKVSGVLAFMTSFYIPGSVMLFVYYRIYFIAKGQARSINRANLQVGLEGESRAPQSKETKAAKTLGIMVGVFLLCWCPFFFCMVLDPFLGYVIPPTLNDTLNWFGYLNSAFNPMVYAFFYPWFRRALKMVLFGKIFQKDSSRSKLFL

[1] = cited from earlier work; for duration of effects in humans / psychoactive dose in humans: anecdotal; for fold increase in human potency from mescaline: ref Kolaczynska et al., 2022
h5-HT2A receptor = h5-HT2A receptor (Homo sapiens, UniProt P28223); set-up: expressed in transfected cells; host or cells: HEK 293 cells (membrane preparations); details: ref Kolaczynska et al., 2022; cited from earlier work
h5-HT2A receptor, sequence (P28223 whole entry): as the sequence (P28223 whole entry) above

hα1A adrenergic receptor = biological target: T3, hα1A adrenergic receptor (Homo sapiens, UniProt P35348); set-up: expressed in transfected cells; host or cells: Chinese hamster ovary cells (membrane preparations); method as in Luethi et al. (2019b); details: reference substance; ref Luethi et al. (2019b); read-out: hα1A Ki ± SD; cited from earlier work
T3 sequence (P35348 1-466): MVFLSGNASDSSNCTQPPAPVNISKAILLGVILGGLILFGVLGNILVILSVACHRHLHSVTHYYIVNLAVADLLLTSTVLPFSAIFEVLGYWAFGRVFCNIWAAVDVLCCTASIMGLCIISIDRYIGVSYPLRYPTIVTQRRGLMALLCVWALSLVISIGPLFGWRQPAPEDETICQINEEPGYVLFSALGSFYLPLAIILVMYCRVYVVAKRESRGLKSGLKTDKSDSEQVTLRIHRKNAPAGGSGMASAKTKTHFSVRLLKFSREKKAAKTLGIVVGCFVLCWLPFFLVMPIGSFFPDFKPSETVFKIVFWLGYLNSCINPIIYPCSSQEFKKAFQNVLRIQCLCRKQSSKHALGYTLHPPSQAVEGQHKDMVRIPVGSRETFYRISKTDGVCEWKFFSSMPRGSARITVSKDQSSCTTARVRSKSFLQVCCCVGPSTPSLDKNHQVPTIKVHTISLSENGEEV

hNET = hNET (Homo sapiens, UniProt P23975); set-up: expressed in transfected cells; host or cells: HEK 293 cells (membrane preparations); method as in Luethi et al. (2019b); details: reference substance; ref Luethi et al. (2019b); read-out: hNET Ki ± SD; cited from earlier work
hNET, sequence (P23975 whole entry): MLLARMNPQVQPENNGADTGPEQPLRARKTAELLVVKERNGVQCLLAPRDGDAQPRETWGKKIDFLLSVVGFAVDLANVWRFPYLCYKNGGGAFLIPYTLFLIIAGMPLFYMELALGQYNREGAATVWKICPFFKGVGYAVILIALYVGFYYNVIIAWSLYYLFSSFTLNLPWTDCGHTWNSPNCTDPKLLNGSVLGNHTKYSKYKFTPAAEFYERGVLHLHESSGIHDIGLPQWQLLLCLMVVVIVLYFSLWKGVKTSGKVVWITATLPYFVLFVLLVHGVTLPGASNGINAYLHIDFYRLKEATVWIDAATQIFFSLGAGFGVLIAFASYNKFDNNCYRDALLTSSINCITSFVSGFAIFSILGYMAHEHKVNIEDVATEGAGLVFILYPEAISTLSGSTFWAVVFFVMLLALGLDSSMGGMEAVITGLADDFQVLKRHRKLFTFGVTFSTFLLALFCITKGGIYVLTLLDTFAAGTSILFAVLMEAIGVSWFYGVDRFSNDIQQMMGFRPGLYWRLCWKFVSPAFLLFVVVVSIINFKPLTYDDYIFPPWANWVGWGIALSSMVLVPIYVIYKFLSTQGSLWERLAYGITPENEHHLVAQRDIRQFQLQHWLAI

hα2A adrenergic receptor = biological target: T4, hα2A adrenergic receptor (Homo sapiens, UniProt P08913); set-up: expressed in transfected cells; host or cells: Chinese hamster lung cells (membrane preparations); method as in Luethi et al. (2019b); details: reference substance; ref Luethi et al. (2019b); read-out: hα2A Ki ± SD; cited from earlier work
T4 sequence (P08913 1-465): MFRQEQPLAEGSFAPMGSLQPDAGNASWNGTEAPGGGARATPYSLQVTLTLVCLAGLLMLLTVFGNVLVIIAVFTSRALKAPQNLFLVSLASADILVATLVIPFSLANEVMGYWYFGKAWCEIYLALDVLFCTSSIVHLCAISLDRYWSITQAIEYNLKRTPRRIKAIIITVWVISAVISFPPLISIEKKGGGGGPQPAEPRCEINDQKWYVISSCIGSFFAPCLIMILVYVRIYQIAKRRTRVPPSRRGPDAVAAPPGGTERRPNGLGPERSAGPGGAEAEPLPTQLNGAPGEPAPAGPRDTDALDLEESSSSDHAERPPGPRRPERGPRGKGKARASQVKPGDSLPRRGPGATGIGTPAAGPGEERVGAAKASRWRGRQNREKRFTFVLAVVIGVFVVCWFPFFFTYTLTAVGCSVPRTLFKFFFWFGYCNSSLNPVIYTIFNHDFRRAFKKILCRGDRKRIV

mTAAR1 = mTAAR1 (Mus musculus, UniProt Q923Y8); set-up: expressed in transfected cells; host or cells: HEK 293 cells (membrane preparations); method as in Luethi et al. (2019b); details: reference substance; ref Luethi et al. (2019b); read-out: mTAAR1 Ki ± SD; cited from earlier work
mTAAR1, sequence (Q923Y8 whole entry): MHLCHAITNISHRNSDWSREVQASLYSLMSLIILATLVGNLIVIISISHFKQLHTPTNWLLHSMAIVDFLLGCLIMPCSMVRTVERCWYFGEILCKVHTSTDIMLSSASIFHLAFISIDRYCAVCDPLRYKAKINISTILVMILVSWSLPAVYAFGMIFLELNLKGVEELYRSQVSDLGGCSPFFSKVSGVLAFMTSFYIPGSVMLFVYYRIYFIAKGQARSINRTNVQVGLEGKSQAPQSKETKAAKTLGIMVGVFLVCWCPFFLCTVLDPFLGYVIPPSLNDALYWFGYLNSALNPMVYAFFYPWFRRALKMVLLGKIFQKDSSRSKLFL

hDAT = hDAT (Homo sapiens, UniProt Q01959); set-up: expressed in transfected cells; host or cells: HEK 293 cells (membrane preparations); method as in Luethi et al. (2019b); details: reference substance; ref Luethi et al. (2019b); read-out: hDAT Ki ± SD; cited from earlier work
hDAT, sequence (Q01959 whole entry): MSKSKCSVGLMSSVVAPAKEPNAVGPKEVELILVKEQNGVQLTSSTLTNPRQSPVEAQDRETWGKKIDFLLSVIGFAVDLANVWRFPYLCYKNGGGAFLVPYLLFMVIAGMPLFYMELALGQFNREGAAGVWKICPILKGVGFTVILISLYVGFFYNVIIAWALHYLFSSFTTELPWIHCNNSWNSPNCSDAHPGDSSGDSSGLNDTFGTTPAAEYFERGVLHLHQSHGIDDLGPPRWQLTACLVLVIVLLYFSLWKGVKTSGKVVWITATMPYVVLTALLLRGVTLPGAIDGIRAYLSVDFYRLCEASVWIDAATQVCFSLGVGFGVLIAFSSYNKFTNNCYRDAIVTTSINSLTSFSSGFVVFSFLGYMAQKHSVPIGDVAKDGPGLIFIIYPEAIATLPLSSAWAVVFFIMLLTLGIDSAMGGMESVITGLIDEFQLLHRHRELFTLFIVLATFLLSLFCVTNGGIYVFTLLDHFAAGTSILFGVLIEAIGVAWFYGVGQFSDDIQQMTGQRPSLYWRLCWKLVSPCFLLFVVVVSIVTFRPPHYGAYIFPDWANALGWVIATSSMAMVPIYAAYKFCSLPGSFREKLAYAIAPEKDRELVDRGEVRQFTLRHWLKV

hD2 receptor = hD2 receptor (Homo sapiens, UniProt P14416); set-up: expressed in transfected cells; host or cells: HEK 293 cells (membrane preparations); method as in Luethi et al. (2019b); details: reference substance; ref Luethi et al. (2019b); read-out: hD2 Ki ± SD; cited from earlier work
hD2 receptor, sequence (P14416 whole entry): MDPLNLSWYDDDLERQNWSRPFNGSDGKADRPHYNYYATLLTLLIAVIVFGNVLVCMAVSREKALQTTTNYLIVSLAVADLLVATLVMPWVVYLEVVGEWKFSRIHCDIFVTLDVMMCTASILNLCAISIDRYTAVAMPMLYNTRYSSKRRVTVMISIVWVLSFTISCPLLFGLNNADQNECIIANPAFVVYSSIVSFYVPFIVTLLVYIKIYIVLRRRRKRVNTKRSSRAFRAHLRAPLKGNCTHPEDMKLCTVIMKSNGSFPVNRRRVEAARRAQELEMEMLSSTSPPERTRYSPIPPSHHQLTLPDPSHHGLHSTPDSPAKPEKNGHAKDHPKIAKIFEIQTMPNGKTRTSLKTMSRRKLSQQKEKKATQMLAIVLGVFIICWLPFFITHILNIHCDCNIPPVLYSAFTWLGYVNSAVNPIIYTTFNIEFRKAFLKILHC

hSERT = hSERT (Homo sapiens, UniProt P31645); set-up: expressed in transfected cells; host or cells: HEK 293 cells (membrane preparations); method as in Luethi et al. (2019b); details: reference substance; ref Luethi et al. (2019b); read-out: hSERT Ki ± SD; cited from earlier work
hSERT, sequence (P31645 whole entry): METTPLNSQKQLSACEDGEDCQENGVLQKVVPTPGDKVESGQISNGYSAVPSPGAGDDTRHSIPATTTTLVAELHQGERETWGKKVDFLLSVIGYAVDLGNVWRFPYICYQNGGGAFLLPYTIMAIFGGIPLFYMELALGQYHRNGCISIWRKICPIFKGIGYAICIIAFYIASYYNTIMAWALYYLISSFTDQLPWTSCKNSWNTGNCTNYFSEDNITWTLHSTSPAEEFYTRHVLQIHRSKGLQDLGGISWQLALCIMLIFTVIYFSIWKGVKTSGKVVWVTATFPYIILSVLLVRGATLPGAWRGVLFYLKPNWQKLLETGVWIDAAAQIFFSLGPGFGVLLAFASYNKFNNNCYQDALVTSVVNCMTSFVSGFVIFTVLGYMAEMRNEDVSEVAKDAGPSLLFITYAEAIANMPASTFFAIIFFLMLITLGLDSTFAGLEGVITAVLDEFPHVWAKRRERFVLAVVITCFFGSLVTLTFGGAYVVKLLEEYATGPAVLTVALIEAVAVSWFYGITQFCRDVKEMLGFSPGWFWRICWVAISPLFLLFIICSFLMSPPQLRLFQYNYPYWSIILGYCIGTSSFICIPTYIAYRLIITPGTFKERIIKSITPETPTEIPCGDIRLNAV

For `COc1cc(CCN)c(OC)cc1Br` [2C-B, 4-bromo-2,5-dimethoxyphenethylamine], the “h5-HT2A activation efficacy Emax ± SD” value (human 5-HT2A receptor) is listed as 92 ± 8% and the “h5-HT2B activation efficacy Emax ± SD” value (human 5-HT2B receptor) is listed as 52 ± 26%.

In the case of `CCOc1cc(OC)c(CCN)cc1OC` [2C-O-2], the Ki (rTAAR1; read-out: TAAR1 Ki (rat and mouse TAAR1 as worded; compared with the rat value of Ψ-2C-O-2), 2,4,5-trisubstituted derivative, ref Kolaczynska et al., 2019) is given as 0.67 µM.

In the case of `COc1cc(SC(C)C)c(OC)cc1CCN` [2C-T-4], the “duration of effects in humans” value ([1]; ref Shulgin and Shulgin, 1991) is given as 12 to 18 h and the “psychoactive dose in humans” value ([1]; ref Shulgin and Shulgin, 1991) is given as 8 to 20 mg.

For `COc1cc(CCN)cc(OC)c1OC(F)F` [DFM], the “fold increase in receptor affinity (Ki values) from mescaline” value (h5-HT2A receptor) is listed as 3 fold and the “fold increase in human potency from mescaline” value [1] is listed as 4 fold.

In the case of `COc1cc(CC(C)N)c(OC)cc1C` (stereo not shown) [DOM], the “duration of effects in humans” value ([1]; ref Shulgin and Shulgin, 1991) is listed as 14 to 20 h and the “psychoactive dose in humans” value ([1]; ref Shulgin and Shulgin, 1991) is listed as 3 to 10 mg.

In the case of `CCN(CC)C(=O)[C@@H]1C=C2c3cccc4[nH]cc(c34)C[C@H]2N(C)C1` [LSD, lysergic acid diethylamide], the “h5-HT2A activation efficacy Emax ± SD” value (human 5-HT2A receptor) is given as 73 ± 2%.

In the case of `C=CCOc1cc(OC)c(CC(C)N)cc1OC` (stereo not shown) [MALM], the “type of agonism at the 5-HT2A receptor” value (human 5-HT2A receptor) is given as “full agonists”.

For `CNC(C)Cc1ccc2c(c1)OCO2` (stereo not shown) [MDMA], the Ki (hα1A adrenergic receptor) is given as 6.9 µM, the Ki (hNET) is given as over 8.7 µM and the Ki (hα2A adrenergic receptor) is given as 4.6 µM. The Ki (mTAAR1) was 3.1 µM, the Ki (rTAAR1; reference substance, ref Luethi et al. (2019b), read-out: rTAAR1 Ki ± SD) was 0.25 ± 0.01 µM and the Ki (hDAT) was over 8.5 µM. For the same molecule, the Ki (hD2 receptor) was over 13 µM and the Ki (hSERT) was over 7.5 µM.

In the case of `C=C(C)COc1cc(OC)c(CC(C)N)cc1OC` (stereo not shown) [MMALM], the “type of agonism at the 5-HT2A receptor” value (human 5-HT2A receptor) is listed as “full agonists”.

In the case of `COc1cc(OC)c(OC)cc1CC(C)N` (stereo not shown) [TMA-2], the “duration of effects in humans” value ([1]; ref Shulgin and Shulgin, 1991) is given as 8 to 12 h and the “psychoactive dose in humans” value ([1]; ref Shulgin and Shulgin, 1991) is given as 20 to 40 mg.

For `COc1cc(CCN)cc(OC)c1OC(F)(F)F` [trifluoromescaline], the “fold increase in receptor affinity (Ki values) from mescaline” value (h5-HT2A receptor) is listed as 33 fold and the “fold increase in human potency from mescaline” value [1] is listed as over 9 fold.

In the case of `COc1cc(SC(C)C)cc(OC)c1CCN` [Ψ-2C-T-4, 2,6-dimethoxy-4-isopropylthiophenethylamine], the “psychoactive dose in humans” value ([1]; ref Shulgin and Shulgin, 1991) is given as over 12 mg and the activity in humans ([1]; highest dose evaluated (12 mg), anecdotal report, ref Shulgin and Shulgin, 1991) is given as “inactive”.

For `COc1cc(C)cc(OC)c1CC(C)N` (stereo not shown) [Ψ-DOM, 2,6-dimethoxy-4-methylamphetamine], the “duration of effects in humans” value ([1]; ref Shulgin and Shulgin, 1991) is listed as 6 to 8 h and the “psychoactive dose in humans” value ([1]; ref Shulgin and Shulgin, 1991) is listed as 15 to 25 mg.
